Legend:
[1] = tested on: allergic, atopic bronchoconstrictor response; assay: Clinical trial 1.1: prophylactic efficacy before allergen challenge in obstructive inflammatory airways disease, e.g. asthma; type: in vivo, subjects (human); settings: oral ca. 10 to 800mg/day, 1 to 2 hours or 1 to 7 days prior to allergen challenge; compared with placebo
Description: (§1) Suitable individual oral dosages, e.g. for COMPOUNDS D2 and K1 in substantially pure form, in such clinical trials comprise, e.g. from ca. 10 to 800mg, e.g. from ca. 50 to 250mg/day, for example at dosages of ca. 25, 50, 200 or 400mg/day orally administered 1x or in divided doses 2 to 3x daily, for example in encapsulated form as hereinafter described in EXAMPLE F. Both acute (0 to 1 hour) and long-term (up to 12 hour) change in lung function is determined post-medication by measurement of lung function parameters, e.g. as follows: • a) FVC; FEV 0.5; FEV 1.0; FEV 3.0; • b) FEV 0.5/FVC; FEV 1/FVC; FEV 3/FVC; • c) PEF; FEF 25-75%; FEF 75-85%; FEF 25%; FEF 50%; FEF 75%; FEF 0.2-1.2 • d) Flow expiratory curve and flow inspiratory curve. Tolerance of medication and possible occurrence of side effects are also reported. In addition to monitoring of lung function, blood eosinophil levels are also monitored and the incidence of activated eosinophils and eosinophil secretory proteins determined. In individual studies, subjects are also subjected to lung lavage and the presence of eosinophils and platelets and their respective secretory products determined before and after exposure to allergen. […] Initial dosaging for e.g. COMPOUND D2 or COMPOUND K1 in substantially pure form is of the order of from 10 to 800mg, e.g. from ca. 50 to 250mg/day, for example at dosages of ca. 25, 50, 200 or 400mg/day administered, e.g. orally once or in divided dosages 2 to 3x daily with subsequent reduction in appropriate cases to a maintenance dosage of 10 to 400mg/day orally. (Suitable dosage forms are e.g. as hereinafter described in EXAMPLE F). During the course of the trial subjects are monitored continually and all relevant parameters recorded including lung function, alterations in the incidence of activated eosinophils or the release of eosinophil products into the blood or bronchial fluids and, in particular, frequency and severity of asthma exacerbation or attack. Additional bronchodilator therapy is provided on the occasion of any such attack. […] During the course of the trial, subjects are monitored continually and all relevant parameters are recorded, including basal lung function, frequency of attack with impairment of lung function, requirement for other medication and frequency of absenteeism attributable to disease status. […] In cases where frequent use of alternative medication is recorded at trial entry, reduced need for concomitant medication is also observed as the trial progresses. […] Recorded symptomatology attributable to condition is also found to undergo reversal during treatment. […]

[2] = Tolerability in clinical trials; type: in vivo, human; settings: oral dosage rates of 50, 200 and 400mg/day
[3] = Acute toxicity (LD50) in mice; settings: mouse, in vivo, read-out: LD₅₀
Description: (§2) Thus established LD₅₀ values for the COMPOUND D2 in substantially pure form in mice and rats after 14 days p.o. and 7 days i.v. are: in mice, p.o […], i.v. 163 mg/kg; in rats, p.o. 1721 mg/kg, i.v. 50 mg/kg.

[4] = tested on: elevated eosinophil presence in the blood; assay: Clinical trial 3: utility in hypereosinophilia and eosinophil-related disorders; type: in vivo, subjects (human); settings: orally 10 to 400mg daily, up to 2 to 3 months
Description: (§3) Suitable individual oral dosages, e.g. for COMPOUNDS D2 and K1 in substantially pure form, in such clinical trials comprise, e.g. from ca. 10 to 800mg, e.g. from ca. 50 to 250mg/day, for example at dosages of ca. 25, 50, 200 or 400mg/day orally administered 1x or in divided doses 2 to 3x daily, for example in encapsulated form as hereinafter described in EXAMPLE F. Both acute (0 to 1 hour) and long-term (up to 12 hour) change in lung function is determined post-medication by measurement of lung function parameters, e.g. as follows: • a) FVC; FEV 0.5; FEV 1.0; FEV 3.0; • b) FEV 0.5/FVC; FEV 1/FVC; FEV 3/FVC; • c) PEF; FEF 25-75%; FEF 75-85%; FEF 25%; FEF 50%; FEF 75%; FEF 0.2-1.2 • d) Flow expiratory curve and flow inspiratory curve. Tolerance of medication and possible occurrence of side effects are also reported. In addition to monitoring of lung function, blood eosinophil levels are also monitored and the incidence of activated eosinophils and eosinophil secretory proteins determined. In individual studies, subjects are also subjected to lung lavage and the presence of eosinophils and platelets and their respective secretory products determined before and after exposure to allergen. […] Initial dosaging for e.g. COMPOUND D2 or COMPOUND K1 in substantially pure form is of the order of from 10 to 800mg, e.g. from ca. 50 to 250mg/day, for example at dosages of ca. 25, 50, 200 or 400mg/day administered, e.g. orally once or in divided dosages 2 to 3x daily with subsequent reduction in appropriate cases to a maintenance dosage of 10 to 400mg/day orally. (Suitable dosage forms are e.g. as hereinafter described in EXAMPLE F). During the course of the trial subjects are monitored continually and all relevant parameters recorded including lung function, alterations in the incidence of activated eosinophils or the release of eosinophil products into the blood or bronchial fluids and, in particular, frequency and severity of asthma exacerbation or attack. Additional bronchodilator therapy is provided on the occasion of any such attack. […] UTILITY IN PNEUMOCONIOSIS/BRONCHITIS The trial is performed analogously to 1.2 above but with groups of subjects having a history of pneumoconiosis or severe bronchitis, e.g. characterised by events of restricted lung function, for example including difficulty in breathing, wheezing, dyspnea or occasional bronchoconstrictor attack and a record of pneumoconiosis- or bronchitis-related work absenteeism. […] COMPOUND D2 or COMPOUND K1 each in substantially pure form is administered daily at oral dosage rates as set forth under 1.2 above, over periods in excess of 2, preferably in excess of 3, months. During the course of the trial, subjects are monitored continually and all relevant parameters are recorded, including basal lung function, frequency of attack with impairment of lung function, requirement for other medication and frequency of absenteeism attributable to disease status. […] In cases where frequent use of alternative medication is recorded at trial entry, reduced need for concomitant medication is also observed as the trial progresses. Similar results are obtainable employing other COMPOUNDS OF THE INVENTION at the same or equivalent dosage rates. • 3. […] COMPOUND D2 or COMPOUND K1 in substantially pure form is administered orally at a daily dosage rate of from 10 to 400mg, e.g. from cam. 50 to 250mg/day, for example at dosages of ca. 25, 50 or 200mg, e.g. in dosage form as hereinafter described in EXAMPLE F. The trial is continued for a period of up to 2 to 3 months. Blood samples are collected regularly during the course of the trial and assayed for blood-eosinophil count, incidence of activated eosinophils and levels of eosinophil secretory proteins. […] Recorded symptomatology attributable to condition is also found to undergo reversal during treatment. Similar results are obtainable employing other COMPOUNDS OF THE INVENTION at the same or equivalent dosage rates.

[5] = tested on: allergen induced eosinophilia; assay: Influence on allergen induced eosinophilia following inhalation of test compound; bronchoalveolar lavage 24 hrs after challenge; type: in vivo, Male guinea-pigs (Dunkin-Hartley); settings: inhalation immediately before challenge, 10.0 to 100mg/kg; lavage 24 hrs following challenge
Description: EXAMPLE B: INFLUENCE ON ALLERGEN INDUCED EOSINOPHILIA IN THE GUINEA-PIG FOLLOWING INHALATION
Male guinea-pigs (Dunkin-Hartley) of ca. 300-400g are sensitized employing 10µg amounts of ovalbumin (3x) and applying the technique described in Sanjar et al., Br. J. Pharmacol., 99, 679-686 (1990).
Immediately before challenge COMPOUND OF THE INVENTION, for example COMPOUND D2 or COMPOUND K1 each in substantially pure form, is administered to sensitized animals by inhalation. Administration is effected via a nose-cone either in dry powder with delivery from a brush feed micronising jet mill powder aerosol generator, as described in Bernstein et al. "Aerosols: Science, Technology and Industrial Application of Airborne Particles", Extended Abstract, eds. B.Y.H. Liu. et. al., Elsevier Science, New York, 1984 or in solution from a nebulizer. Antigen challenge or exposure is then carried out, again in accordance with the methods described by Sanjar et. al. loc cit. at p. 680 column 1, employing 10µg ovalbumin in 0.01% solution. Broncheolar lavage is performed 24 hrs following challenge, as follows: • 1. Airway lavage Guinea-pigs are killed by an intraperitoneal injection of pentobarbitone 100mg/kg). The trachea is exposed and cannulated. 10ml of Hank's balanced solution is introduced into the lungs and immediately aspirated by gentle compression of the lung tissue. This procedure is repeated five times. Aspiration fluid is pooled at room temperature in Falcon plastic tubes (60ml). Fluid recovered from the six washes normally exceeds 50ml (85%). The cell suspension is centrifuged (200g for 10 minutes); the supernatant is discarded and the cell pellet resuspended in 1ml of Hank's balanced solution. • 2. Total cell counts 10µl of the 1ml cell suspension is added to 190µl or 90µl (when cell count is low) of Turk's stain (Merck, Darmstadt, Germany) and total cell numbers are determined in a Neubauer (brightline) hemocytometer. The incidence of cells in the 1ml suspension is calculated by multiplying the total cells enumerated in a square of 1mm² by the original dilution viz.: No. of cells counted x dilution x […] = no. of cells/ml. • 3. Differential cell counts The cell suspension is diluted in Hank's balanced solution to obtain a cell concentration of 10⁶ cells per ml. 50µl of this cell suspension is placed in the cytospin (Cytospin 2, Shandon Co.) tube and overlaid by 200µl of buffer. The cytospin is used at 600rpm for 8 minutes. Results for groups of animals receiving COMPOUNDS OF THE INVENTION at varying doses are compared with results for control challenged animals receiving no test substance.

[6] = Acute toxicity (LD50) in rats; settings: rat, in vivo, read-out: LD₅₀
Description: as §2

[7] = tested on: pneumoconiosis or severe bronchitis; assay: Clinical trial 2: utility in pneumoconiosis/bronchitis; type: in vivo, subjects (human); settings: daily oral dosage as under 1.2, in excess of 2 months; for need for concomitant medication: frequent alternative medication at trial entry
Description: as §3

[8] = tested on: eosinophil accumulation in the airway lumen; assay: Suppression of eosinophil accumulation in allergen (ovalbumin) treated, sensitised animals; airway lavage cell counts; type: in vivo, Guinea-pigs (Dunkin-Hartley, male); settings: for airway eosinophil accumulation compared with untreated controls: 10.0 - 100mg/kg/day as a solution orally for 6 consecutive days prior to challenge, 1 hour prior and seven hours after challenge, lavage 24 hours after challenge
[9] = tested on: asthma exacerbation or attack; assay: Clinical trial 1.2: long-term prophylactic efficacy in asthmatic subjects; type: in vivo, asthmatic subjects (human); settings: 10 to 800mg/day orally; for frequency of asthma exacerbation or attack: at least 2 up to 6 months and more, compared with alternative, non-prophylactic therapy; for need for concomitant (bronchodilator) therapy: at least 2 up to 6 months, subjects initially dependent on methyl-xanthine or β₂-agonist therapy
Description: as §1

beagle dogs = assay: 26-week oral tolerability in beagle dogs; type: in vivo; settings: up to 200 mg/kg/day P.O for 26 weeks
beagle dog = assay: Pilot toxicological studies in the beagle dog; type: in vivo; settings: 150 and 200 mg/kg p.o. in gelatin capsules over 5 weeks and in olive oil from week 6 to week 8 on

COC1=Cc2ccccc2C(=CC(=O)O)c2ccsc21 [COMPOUND D2, [10-Methoxy-4H-benzo[4,5]cyclohepta[1,2-b]thiophen-4-ylidene]-acetic acid]
eosinophilic response [1]: reduction of eosinophilic response | lung function parameters [1]: marked improvement | tolerability / side effects [2]: well tolerated with no significant side effect occurrance | LD50 at 168 h ([3]; iv, after 7 days): 163 mg/kg | LD50 at 336 h ([3]; po, after 14 days): 1620 mg/kg | blood-eosinophil count [4]: decreased blood-eosinophil count | incidence of activated eosinophils and eosinophil secretory protein levels [4]: decreased incidence | recorded symptomatology attributable to condition [4]: reversal | eosinophil counts as compared with control groups [5]: clear reduction | neutrophil counts as compared with control groups [5]: clear reduction | total cell counts as compared with control groups [5]: clear reduction | LD50 at 168 h ([6]; iv, after 7 days): 50 mg/kg | LD50 at 336 h ([6]; po, after 14 days): 1720 mg/kg | basal lung function [7]: overall improvement | frequency of attack and absenteeism [7]: reduced frequency | need for concomitant medication [7]: reduced need | airway eosinophil accumulation compared with untreated controls [8]: significant reduction | activity in the subject test model (airway eosinophil accumulation) ([8]; dosages of 10 and 50mg/kg/day s.c.): significant activity | frequency of asthma exacerbation or attack [9]: marked reduction | need for concomitant (bronchodilator) therapy [9]: increasingly reduced need | tolerability (beagle dogs): generally well tolerated

COC1=Cc2ccccc2C(=CC(=O)O)c2cc(Cl)sc21 [COMPOUND K1, [2-Chloro-10-methoxy-4H-benzo[4,5]cyclohepta[1,2-b]thiophen-4-ylidene]-acetic acid]
pathological effects (beagle dog): no pathological effects | blood-eosinophil count [4]: decreased blood-eosinophil count | incidence of activated eosinophils and eosinophil secretory protein levels [4]: decreased incidence | recorded symptomatology attributable to condition [4]: reversal | eosinophil counts as compared with control groups [5]: clear reduction | neutrophil counts as compared with control groups [5]: clear reduction | total cell counts as compared with control groups [5]: clear reduction | basal lung function [7]: overall improvement | frequency of attack and absenteeism [7]: reduced frequency | need for concomitant medication [7]: reduced need | airway eosinophil accumulation compared with untreated controls [8]: significant reduction

COC1=Cc2ccccc2C(=CC(=O)O)c2cc(Cl)sc21 [COMPOUND K2, [2-Chloro-10-methoxy-4H-benzo[4,5]cyclohepta[1,2-b]thiophen-4-ylidene]-acetic acid]
eosinophilic response [1]: reduction of eosinophilic response | lung function parameters [1]: marked improvement | frequency of asthma exacerbation or attack [9]: marked reduction | need for concomitant (bronchodilator) therapy [9]: increasingly reduced need

Source: patent EP0456204A2, “Use of benzocycloheptathiophenecarboxylic acid derivatives in the treatment of eosinophile accumulation/activation and connected diseases” (SANDOZ LTD., priority 1990, dated 1991)
